Source: patent US20240208981A1, “NITROGEN-CONTAINING HETEROCYCLIC POLYCYCLIC COMPOUND, PREPARATION METHOD THEREFOR, AND APPLICATION THEREOF” (Shanghai Hansoh Biomedical Co., Ltd., priority 2021, published 2024)

Key:
human OX2R = human OX2R (Homo sapiens (Human), UniProt O43614); assay: Calcium flux in cells stably expressing OX2 receptor (FLIPR, Fluo-8 AM); type: cell-based; details: for IC50: CHO-K1/human OX2R cells, inhibition of calcium flux, agonist OX-B at EC80; for Selectivity multiple: OX1R IC50 versus OX2R IC50
Chain of human OX2R (O43614 whole entry): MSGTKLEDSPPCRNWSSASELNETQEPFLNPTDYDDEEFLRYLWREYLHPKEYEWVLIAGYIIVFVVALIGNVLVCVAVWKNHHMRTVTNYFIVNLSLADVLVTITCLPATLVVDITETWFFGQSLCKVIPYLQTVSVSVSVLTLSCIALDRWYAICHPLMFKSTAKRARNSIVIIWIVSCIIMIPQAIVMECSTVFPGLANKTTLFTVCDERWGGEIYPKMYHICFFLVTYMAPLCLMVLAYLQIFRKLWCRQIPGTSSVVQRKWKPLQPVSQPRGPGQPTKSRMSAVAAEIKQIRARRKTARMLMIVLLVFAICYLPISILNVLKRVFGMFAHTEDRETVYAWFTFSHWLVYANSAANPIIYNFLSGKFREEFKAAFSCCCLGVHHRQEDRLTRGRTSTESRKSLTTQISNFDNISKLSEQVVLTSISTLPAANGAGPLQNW
Description: (§1) To determine the inhibitory effect of the compounds on calcium flux in CHO-K1/human OX1R and CHO-K1/human OX2R cells.
(§2) • 1) CHO-K1/human OX1R and CHO-K1/human OX2R cell lines were cultured separately in complete medium at 37° C., 5% CO2 to 70%˜90% confluence; • 2) A 384-well cell culture plate was coated with 1× Matrigel (5 uL per well) at room temperature for 10-30 minutes; • 3) The cells were digested and resuspended in cell inoculation medium. CHO-K1/human OX1R and CHO-K1/human OX2R cell lines were inoculated into two 384-well cell culture plates respectively (8,000 cells/well/20 μL). The culture plates were incubated at 37 °C, 5% CO2 for 24 hours; • 4) The cell culture plates were taken out of the CO2 incubator and equilibrated at room temperature for 10 minutes; • 5) 1000× Fluo-8 AM was diluted with assay buffer 1 equilibrated to room temperature to obtain 1× Fluo-8 AM at a concentration of 2 μM; • 6) The culture medium in the cell culture plate was removed, and 20 μL of 1× Fluo-8 AM was added to each well. The plates were centrifuged at room temperature at 300 rpm for 60 seconds, and incubated at room temperature in the dark for 1 hour; • 7) Determination of EC80 of OX1 and OX2 receptors agonists (OX-A for OX1R assays, OX-B for OX2R assays): OX1 and OX2 receptors agonists working solutions were diluted and prepared respectively. The diluted OX1 and OX2 receptors agonists were added using FLIPR Tetra to the experimental wells of the 384-well cell culture plates corresponding to CHO-K1/human OX1R and CHO-K1/human OX2R cell lines. The data were collected, and EC80 of OX-A and OX-B was obtained according to the following experimental data processing method; • 8) Steps 1 to 7 were repeated. […] After 15 minutes, OX1 and OX2 receptors agonists were added to the plates of the two cell lines respectively according to the previously obtained EC80. The data were collected, and the IC50 of the positive compounds and the test compounds was determined.
(§3) Fluorescence signal value (RFU) was collected with FLIPR Tetra.

human OX1R = human OX1R (Homo sapiens (Human), UniProt O43613); assay: Calcium flux in cells stably expressing OX1 receptor (FLIPR, Fluo-8 AM); type: cell-based; details: CHO-K1/human OX1R cells; inhibition of calcium flux, agonist OX-A at EC80
Chain of human OX1R (O43613 whole entry): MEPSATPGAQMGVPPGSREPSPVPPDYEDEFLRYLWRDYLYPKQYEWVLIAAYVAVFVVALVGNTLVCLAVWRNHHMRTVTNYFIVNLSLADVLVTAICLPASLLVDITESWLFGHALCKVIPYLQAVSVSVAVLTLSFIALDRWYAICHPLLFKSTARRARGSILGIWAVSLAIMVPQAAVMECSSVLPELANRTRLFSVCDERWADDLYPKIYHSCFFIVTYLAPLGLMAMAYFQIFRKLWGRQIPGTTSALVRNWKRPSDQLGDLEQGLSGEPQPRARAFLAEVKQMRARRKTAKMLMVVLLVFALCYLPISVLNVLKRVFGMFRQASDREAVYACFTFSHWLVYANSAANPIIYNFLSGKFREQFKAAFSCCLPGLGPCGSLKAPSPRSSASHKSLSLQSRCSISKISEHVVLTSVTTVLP
Description: as §1, §2, §3

CYP450 1A2 = CYP450 1A2 (Homo sapiens (Human), UniProt P05177)
Chain of CYP450 1A2 (P05177 whole entry): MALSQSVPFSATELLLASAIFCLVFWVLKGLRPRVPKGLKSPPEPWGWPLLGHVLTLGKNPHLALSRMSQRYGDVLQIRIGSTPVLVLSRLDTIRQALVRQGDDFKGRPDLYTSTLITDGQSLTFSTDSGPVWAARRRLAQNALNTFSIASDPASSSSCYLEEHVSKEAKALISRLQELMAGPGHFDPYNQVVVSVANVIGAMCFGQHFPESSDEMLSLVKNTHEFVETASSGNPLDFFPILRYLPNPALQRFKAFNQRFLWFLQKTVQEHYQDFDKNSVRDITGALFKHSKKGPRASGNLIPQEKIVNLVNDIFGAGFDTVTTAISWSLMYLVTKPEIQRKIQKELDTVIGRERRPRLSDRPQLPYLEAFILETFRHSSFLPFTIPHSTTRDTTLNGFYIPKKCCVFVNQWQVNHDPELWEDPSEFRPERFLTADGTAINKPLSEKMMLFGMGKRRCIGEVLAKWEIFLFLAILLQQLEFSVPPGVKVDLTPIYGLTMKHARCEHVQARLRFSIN
Description: (§4) The human liver microsome incubation system was used to rapidly predict the inhibitory effect of the compounds on CYP450 enzyme subtypes by using single-point method.
(§5) The compound of the example to be tested was weighed, diluted to 10 mM with DMSO, and then diluted to 100 μM with 100 mM phosphate buffer.
(§6) • 1. 40 μL of liver microsomes, 10 μL of substrate, and 10 μL of the test compound were added to a 96-well plate, and pre-incubated for 3 minutes. • 2. 40 μL of NADPH was added. • 3. 300 μL of acetonitrile stop solution containing an internal standard was added at 20 minutes. • 4. The sample was injected […].

CYP450 2C9 = CYP450 2C9 (Homo sapiens (Human), UniProt P11712); assay: CYP enzyme single point inhibition assay, human liver microsomes, 2C9; type: in vitro ADME; details: single-point method
Chain of CYP450 2C9 (P11712 whole entry): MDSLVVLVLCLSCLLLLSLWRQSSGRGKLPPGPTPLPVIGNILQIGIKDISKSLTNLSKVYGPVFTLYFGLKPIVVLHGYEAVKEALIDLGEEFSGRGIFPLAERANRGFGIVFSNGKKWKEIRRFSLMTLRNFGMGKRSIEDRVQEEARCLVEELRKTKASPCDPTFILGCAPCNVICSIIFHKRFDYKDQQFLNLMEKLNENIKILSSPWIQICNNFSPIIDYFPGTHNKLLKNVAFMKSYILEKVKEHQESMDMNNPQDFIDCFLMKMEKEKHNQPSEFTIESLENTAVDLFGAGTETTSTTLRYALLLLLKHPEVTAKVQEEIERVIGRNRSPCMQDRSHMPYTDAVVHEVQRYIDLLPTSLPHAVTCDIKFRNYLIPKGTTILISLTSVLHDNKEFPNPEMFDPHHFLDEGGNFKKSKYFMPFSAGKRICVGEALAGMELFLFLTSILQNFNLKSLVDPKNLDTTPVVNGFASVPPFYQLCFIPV
Description: as §4, §5, §6

CYP450 2D6 = CYP450 2D6 (Homo sapiens (Human), UniProt P10635); assay: CYP enzyme single point inhibition assay, human liver microsomes, 2D6; type: in vitro ADME; details: single-point method
Chain of CYP450 2D6 (P10635 whole entry): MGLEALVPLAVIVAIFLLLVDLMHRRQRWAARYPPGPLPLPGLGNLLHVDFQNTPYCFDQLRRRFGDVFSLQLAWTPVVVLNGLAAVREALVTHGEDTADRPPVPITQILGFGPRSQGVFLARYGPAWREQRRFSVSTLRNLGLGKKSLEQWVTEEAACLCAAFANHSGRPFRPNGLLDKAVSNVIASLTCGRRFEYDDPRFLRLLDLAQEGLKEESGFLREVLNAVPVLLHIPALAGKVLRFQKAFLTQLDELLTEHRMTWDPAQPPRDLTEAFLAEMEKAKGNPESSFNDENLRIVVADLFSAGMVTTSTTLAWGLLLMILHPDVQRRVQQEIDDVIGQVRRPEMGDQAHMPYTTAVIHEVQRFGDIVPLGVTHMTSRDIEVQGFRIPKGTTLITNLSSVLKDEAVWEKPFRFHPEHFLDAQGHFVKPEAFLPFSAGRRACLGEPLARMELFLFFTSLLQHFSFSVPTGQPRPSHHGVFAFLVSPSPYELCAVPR
Description: as §4, §5, §6

in vivo = details: male, SD, rat, po, 5 mg/kg
Description: SD rats were used as test animals.
The plasma samples were stored at −80° C.

Structure (SMILES) | IC50 (human OX2R) | Selectivity multiple (human OX2R) | IC50 (human OX1R) | IC50 (CYP450 1A2) | IC50 (CYP450 2C9) | IC50 (CYP450 2D6) | AUC(0-inf) (in vivo) | Cmax (in vivo) | Tmax (in vivo)
Cc1cc(C)nc(N2C[C@H]3CN(C(=O)c4c(F)cccc4-n4ncc(C5CC5)n4)C[C@H]3C2)n1 [Compound 43, (2-(4-cyclopropyl-2H-1,2,3-triazol-2-yl)-6-fluorophenyl)((3aR,6aS)-5-(4,6-dimethylpyrimidin-2-yl)hexahydropyrrolo[3,4-c]pyrrol-2(1H)-yl)methanone] | 0.0999 µM | 102 | 10.2 µM |  |  |  |  |  | 
Cc1cc(N2C[C@H]3CN(C(=O)c4c(F)cccc4-n4nccn4)C[C@H]3C2)nc(C(C)(C)O)c1 [Compound 60, (2-fluoro-6-(2H-1,2,3-triazol-2-yl)phenyl)((3R,6S)-5-(6-(2-hydroxypropan-2-yl)-4-methylpyridin-2-yl)hexahydropyrrolo[3,4-c]pyrrol-2(1H)-yl)methanone] | 0.0552 µM | 244 | 13.5 µM | > 100 µM |  |  |  |  | 
Cc1cc(N2C[C@H]3CN(C(=O)c4c(O)cccc4-n4nccn4)C[C@H]3C2)nc(C(C)(C)O)c1 [Compound 85, (2-hydroxy-6-(2H-1,2,3-triazol-2-yl)phenyl)((3R,6S)-5-(6-(2-hydroxypropan-2-yl)-4-methylpyridin-2-yl)hexahydropyrrolo[3,4-c]pyrrol-2(1H)-yl)methanone] | 0.0585 µM | 234 | 13.7 µM |  |  |  |  |  | 
Cc1cc(C)nc(N2C[C@H]3CN(C(=O)c4ccccc4OC(F)(F)C(F)F)C[C@H]3C2)n1 [Compound 45, ((3aR,6aS)-5-(4,6-dimethylpyrimidin-2-yl)hexahydropyrrolo[3,4-c]pyrrol-2(1H)-yl)(2-(1,1,2,2-tetrafluoroethoxy)phenyl)methanone] | 0.0522 µM | 83 | 4.33 µM |  |  |  |  |  | 
Cc1nc(N2C[C@H]3CN(C(=O)c4cccc(F)c4-n4nccn4)C[C@H]3C2)nc(C(C)(C)O)c1F [Compound 95, (3-fluoro-2-(2H-1,2,3-triazol-2-yl)phenyl)((cis)-5-(5-fluoro-4-(2-hydroxypropan-2-yl)-6-methylpyrimidin-2-yl)hexahydropyrrolo[3,4-c]pyrrol-2(1H)-yl)methanone] |  | 49 |  | > 100 µM | > 100 µM | > 100 µM |  |  | 
Cc1cc(C)nc(N2C[C@H]3CN(C(=O)c4ccccc4-c4nc5ccccc5o4)C[C@H]3C2)n1 [Compound 50, (2-(benzooxazol-2-yl)phenyl)((3aR,6aS)-5-(4,6-dimethylpyrimidin-2-yl)hexahydropyrrolo[3,4-c]pyrrol-2(1H)-yl)methanone] | 0.0711 µM | 82 | 5.84 µM |  |  |  |  |  | 
Cc1cc(C(C)(C)O)nc(N2C[C@H]3CN(C(=O)c4c(F)cccc4-n4nccn4)C[C@H]3C2)n1 [Compound 3, (2-fluoro-6-(2H-1,2,3-triazol-2-yl)phenyl)((3aR,6aS)-5-(4-(2-hydroxypropan-2-yl)-6-methylpyrimidin-2-yl)hexahydropyrrolo[3,4-c]pyrrol-2(1H)-yl)methanone] | 0.0444 µM | 83 | 3.7 µM |  |  |  |  |  | 
Cc1nc(N2C[C@H]3CN(C(=O)c4ccc(F)cc4-n4nccn4)C[C@H]3C2)nc(C(C)(C)O)c1F [Compound 94, (4-fluoro-2-(2H-1,2,3-triazol-2-yl)phenyl)((cis)-5-(5-fluoro-4-(2-hydroxypropan-2-yl)-6-methylpyrimidin-2-yl)hexahydropyrrolo[3,4-c]pyrrol-2(1H)-yl)methanone] | 0.0252 µM | 48 | 1.2 µM |  |  |  |  |  | 
Cc1nc(N2C[C@H]3CN(C(=O)c4c(F)cccc4-c4ccccn4)C[C@H]3C2)nc(C(C)(C)O)c1F [Compound 97, ((3aR,6aS)-5-(5-fluoro-4-(2-hydroxypropan-2-yl)-6-methylpyrimidin-2-yl)hexahydropyrrolo[3,4-c]pyrrol-2(1H)-yl)(2-fluoro-6-(pyridin-2-yl)phenyl)methanone] |  | 36 |  |  |  |  |  |  | 
CC(C)(O)c1nc(N2C[C@H]3CN(C(=O)c4c(F)cccc4-c4ncccn4)C[C@H]3C2)ncc1F [Compound 93, ((3aR,6aS)-5-(5-fluoro-4-(2-hydroxypropan-2-yl)pyrimidin-2-yl)hexahydropyrrolo[3,4-c]pyrrol-2(1H)-yl)(2-fluoro-6-(pyrimidin-2-yl)phenyl)methanone] |  | 122 |  | > 100 µM | > 100 µM | > 100 µM |  |  | 
Cc1cc(C(C)(C)O)nc(N2C[C@H]3CN(C(=O)c4c(F)cccc4-c4ncccn4)C[C@H]3C2)n1 [Compound 56, (2-fluoro-6-(pyrimidin-2-yl)phenyl)((3R,6S)-5-(4-(2-hydroxypropan-2-yl)-6-methylpyrimidin-2-yl)hexahydropyrrolo[3,4-c]pyrrol-2(1H)-yl)methanone] | 0.0082 µM | 405 | 3.32 µM |  |  |  |  |  | 
CC(C)(O)c1nc(N2C[C@H]3CN(C(=O)c4c(F)cccc4-n4nccn4)C[C@H]3C2)ccc1F [Compound 91, ((3aR,6aS)-5-(5-fluoro-6-(2-hydroxypropanyl)pyridin-2-yl)hexahydropyrrolo[3,4-c]pyrrol-2(1H)-yl)(2-fluoro-6-(2H-1,2,3-triazol-2-yl)phenyl)methanone] | 0.0359 µM | 88 | 3.16 µM |  |  |  |  |  | 
Cc1ccc(N2C[C@H]3CN(C(=O)c4c(F)cccc4-n4nccn4)C[C@H]3C2)nc1C(C)(C)O [Compound 48, (2-fluoro-6-(2H-1,2,3-triazol-2-yl)phenyl)((3aR,6aS)-5-(6-(2-hydroxypropan-2-yl)-5-methylpyridin-2-yl)hexahydropyrrolo[3,4-c]pyrrol-2(1H)-yl)methanone] | 0.0745 µM | 328 | 24.4 µM |  |  |  |  |  | 
Cc1cc(C(C)(C)F)nc(N2C[C@H]3CN(C(=O)c4c(F)cccc4-n4nccn4)C[C@H]3C2)n1 [Compound 57, (2-fluoro-6-(2H-1,2,3-triazol-2-yl)phenyl)((3aR,6aS)-5-(4-(2-fluoropropan-2-yl)-6-methylpyrimidin-2-yl)hexahydropyrrolo[3,4-c]pyrrol-2(1H)-yl)methanone] | 0.0097 µM | 314 | 3.05 µM |  |  |  | 279 ng·h/mL | 110 ng/mL | 30 min
